# Where two headings read alike, the source gives them in different places.
# Experiments:
# Assay type in all cases: in vivo, Rattus norvegicus
# [1] = system: Sprague-Dawley rats; test: In-life observations, 28-day repeated dose oral toxicity study
# Text: The experimental protocol followed the OECD 407 Guideline on Repeated dose 28-day oral toxicity study in rodents, which was enhanced for detection of endocrine, neurotoxicity, retinoid, bone and DNA damage endpoints. In order to improve the assessment of dose-response relationships the number of rats per gender per dose group was reduced to 5 and the amount of dose groups was increased to 8. To rapidly achieve the kinetic steady state, the total dose was divided into 6 daily loading doses and 3 weekly maintenance doses, which were calculated according to the formula [21]. [drawing 1] where [drawing 2] = loading dose
# Loading doses were administered on days 0–5 and maintenance doses on days 10, 17 and 24 of the study. Selection of the highest dose was based on a pilot study.
# Food and water consumption per cage was recorded once weekly. For determination of the stage of the estrous cycle vaginal smears were collected from female rats daily starting from day 23 of the study. This was done to ensure that the females were at the diestrous stage during necropsy.
# [2] = system: Sprague-Dawley rats; test: Liver p53 and DNA damage markers, Western blotting; conditions: for Emax: Rattus norvegicus
# Description: Liver p53, Mdm2 and DNA damage related markers were assessed by Western blotting analysis. Proteins of the liver homogenates were quantified using Coomassie Plus Protein Assay Reagent (Pierce, Täby, Sweden). The samples were subjected to SDS-PAGE, the separated proteins were transferred to a polyvinylidene difluoride membrane (Bio-Rad, Hercules, CA, USA) and blocked in 10% non-fatty milk for 1 h. The protein bands were subsequently probed with antibodies overnight at 4°C.
# The primary antibody for total p53 DO-1 was purchased from Novocastra (Newcastle, UK). Primary antibodies for DNA-damage marker were phospho-p53 (Ser-15), phospho-Chk2 (Thr-68), phospho-Mdm2 (Ser-166), phospho-Akt (Ser-473) (Cell Signaling Technology, Stockholm, Sweden) phospho-Erk (Tyr-204) (E-4) and the loading control Cdk2 (M2) (sc-7383 resp. sc-163, Santa Cruz Biotechnology, Santa Cruz, CA, USA). Secondary antibodies used were goat anti-rabbit IgG, goat anti-mouse IgG (sc-2004 resp. sc-2005, Santa Cruz Biotechnology). No signals were obtained when primary antibodies were omitted. […]. The results were visualized by the ECL or ECL plus detection kits (Amersham GE Healthcare Bio-sciences AB, Uppsala, Sweden). Cdk2 was used as a loading control.
# Data were also analyzed using the BMD method, which is based on dose-response modeling of the full data set using a nested family of exponential and Hill models. The analyses were done on data of males and females combined, using sex as a covariate. […] In that case, different Critical Effect Doses (CEDs) and CEDs at the lowest bound of the confidence interval (CED-L) were generated for each sex. If no difference between sexes is detected, a CED and CED-Ls for the combined data is generated. However, this was also done if the curve fits are close, and separate analyses for males and females were then performed manually. […]
# [3] = system: Dopamine receptors D1 and D5; test: Brain [3H]SCH23390 binding in exposed rats; conditions: males
# Description: The membrane containing pellet was homogenized in 15 volumes of 50 mM Tris-HCl buffer at pH 7.4, incubated at 25°C for 30 min, and centrifuged again at 100 000 g. The pellet from the second centrifugation was dissolved in 4 ml 0.32 M sucrose/g brain (v/w), with a final protein concentration of […] and frozen at −40°C.
# Dopamine receptors D1 and D5 were analyzed as described before, [39]. In brief, 50 µl (0.7 mg protein) of the membrane preparation was incubated with 124–132 µl buffer (50 mM tris-HCL, 120 mM NaCl, 5 mM KCl, 2,5 mM CaCl2 and 1 mM MgCl2, pH 7.4) and 100 nM ketanserine (Tocris Bioscience, Bristol, UK; to block binding of SCH23390 to the 5-HT receptor) to a final volume of 200 µl. For measuring unspecific binding […] SCH23390 was added to the same mixture. Finally, 1 nM [^3H]SCH23390 was added to all samples to measure binding of the receptors or unspecific binding. The samples were incubated for 30 min at 25°C followed by vacuum filtration and scintillation counting.
# Samples were vacuum filtrated trough Whatman glassfiber-filters (type GF/B, 25 mm) and washed 3×3 ml ice-cold incubation buffer. To reduce unspecific binding, the filters where pre-wetted in 1% polyetylenimine for 60 min. […] Radioactive binding was measured as disintegration per minute (DPM1) in a scintillation counter (Tri-Carb 3100TR, Perkin Elmer). […]
# [4] = F, CES 5%, model E4, adipose tissue concentration based
# [5] = F, CES 5%, model E5, adipose tissue concentration based
# [6] = F, CES 100%, model E4, adipose tissue concentration based
# [7] = F, CES 100%, model E5, adipose tissue concentration based
# [8] = females, CES 5%, total dose based
# [9] = females, CES 100%, adipose tissue concentration based
# [10] = females, CES 100%, total dose based
# [11] = females, adipose tissue concentration based
smiles,measurement,setting,value
"Clc1cc(Cl)c(-c2cc(Cl)c(Cl)c(Cl)c2Cl)cc1Cl [PCB 180, 2,2′,3′,4,4′,5,5′-heptachlorobiphenyl]",Body weight development,"[1]; 1700 mg/kg bw, both genders, during loading dosing, recovered completely by end of study",retarded
same,"Feed consumption, maximal temporary reduction","[1]; females, three highest doses, during loading dosing",about 20%
same,"Feed consumption, maximal temporary reduction","[1]; males, two highest doses, during loading dosing",about 25%
same,Water consumption,"[1]; rat, in vivo",unaffected
same,Mortality,"[1]; total doses 3-1700 mg/kg bw, both genders",no mortality
same,"CED, Liver p53",[2]; [4],65.2 µg/g lipid
same,"CED-L, Liver p53",[2]; [4],30.0 µg/g lipid
same,"CED, Liver p53 Ser15",[2]; [5],361 µg/g lipid
same,"CED, Liver pChk2 Thr68",[2]; [5],337 µg/g lipid
same,"CED-L, Liver p53 Ser15",[2]; [5],124 µg/g lipid
same,"CED-L, Liver pChk2 Thr68",[2]; [5],98.2 µg/g lipid
same,"CED, Liver p53",[2]; [6],2240 µg/g lipid
same,"CED-L, Liver p53",[2]; [6],1053 µg/g lipid
same,"CED, Liver p53 Ser15",[2]; [7],438 µg/g lipid
same,"CED, Liver pChk2 Thr68",[2]; [7],382 µg/g lipid
same,"CED-L, Liver p53 Ser15",[2]; [7],411 µg/g lipid
same,"CED-L, Liver pChk2 Thr68",[2]; [7],165 µg/g lipid
same,Emax,"[2]; F, model E4, controls vs high dose according to the fitted model, read-out: Maximum response, Liver p53",141%
same,Emax,"[2]; females, controls vs high dose, fitted model, read-out: Liver p53, Maximum response",142%
same,Emax,"[2]; females, controls vs high dose, fitted model, read-out: Liver p53 Ser15, Maximum response",181%
same,Emax,"[2]; females, controls vs high dose, fitted model, read-out: Liver pChk2 Thr68, Maximum response",185%
same,Emax,"[2]; F, model E5, controls vs high dose according to the fitted model, read-out: Maximum response, Liver p53 Ser15",181%
same,Emax,"[2]; F, model E5, controls vs high dose according to the fitted model, read-out: Maximum response, Liver pChk2 Thr68",185%
same,"Liver p53, CED",[2]; [8],14.1 mg/kg bw
same,"Liver p53, CED-L",[2]; [8],5.89 mg/kg bw
same,"Liver p53 Ser15, CED",[2]; [8],79.2 mg/kg bw
same,"Liver p53 Ser15, CED-L",[2]; [8],19.5 mg/kg bw
same,"Liver pChk2 Thr68, CED",[2]; [8],72.9 mg/kg bw
same,"Liver pChk2 Thr68, CED-L",[2]; [8],31.5 mg/kg bw
same,"Liver p53 Ser15, CED (100%)",[2]; [9],438 µg/g lipid
same,"Liver pChk2 Thr68, CED (100%)",[2]; [9],382 µg/g lipid
same,"Liver p53, CED",[2]; [10],472 mg/kg bw
same,"Liver p53, CED-L",[2]; [10],210 mg/kg bw
same,"Liver p53 Ser15, CED",[2]; [10],101 mg/kg bw
same,"Liver p53 Ser15, CED-L",[2]; [10],93.0 mg/kg bw
same,"Liver pChk2 Thr68, CED",[2]; [10],81.1 mg/kg bw
same,"Liver pChk2 Thr68, CED-L",[2]; [10],41.8 mg/kg bw
same,"Liver p53, CED",[2]; [11],2240 µg/g lipid
same,"Liver p53, CED-L",[2]; [11],30000 ng/g lipid
same,Specific [3H]SCH23390 binding to D1/D5 dopamine receptors in cerebrum vs controls,[3]; 1000 mg/kg bw,No significant differences
same,Dopamine D1/D5 receptor binding,"[3]; total dose 1000 mg/kg bw, group mean",1075 DPM1

# — publication PMC4138103 (PLoS ONE, 2014)
